From article PMC10160982 (Proceedings of the National Academy of Sciences of the …, 2023)

Columns and labels:
SARS-CoV-2-trVLPs = format: cell-based, SARS-CoV-2 (Wuhan-Hu-1 strain); details: ratio of CC50 to antiviral EC50, Caco-2-N cells
[1] = system: secretion of the matured form of IL-1β (P17) in SFTSV-infected THP-1 macrophages; assay: cells; format: cell-based; details: for inhibition at 10 µM: Homo sapiens, THP-1, 48 h, read-out: inhibition rate of IL-1β (P17) secretion
[2] = system: SARS-CoV-2-induced IL-1β P17 release in Calu-3 cells; format: cell-based
[3] = biological target: PDE4 (catalytic domain of human PDE4D) (Homo sapiens, UniProt Q08499); assay: PDE4 inhibition assay; format: biochemical
PDE4 (catalytic domain of human PDE4D), sequence (Q08499 388-715): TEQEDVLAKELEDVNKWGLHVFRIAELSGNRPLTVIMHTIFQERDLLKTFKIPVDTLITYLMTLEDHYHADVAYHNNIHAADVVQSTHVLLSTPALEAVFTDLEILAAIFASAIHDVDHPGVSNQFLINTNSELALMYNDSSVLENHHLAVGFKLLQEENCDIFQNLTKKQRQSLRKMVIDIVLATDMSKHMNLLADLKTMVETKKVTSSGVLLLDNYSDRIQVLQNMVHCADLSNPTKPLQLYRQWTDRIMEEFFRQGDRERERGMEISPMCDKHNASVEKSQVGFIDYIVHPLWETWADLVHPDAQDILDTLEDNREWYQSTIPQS

[4] = biological target: SARS-CoV-2 polymerase complex (RdRp; nsp12, nsp7-nsp8) (Severe acute respiratory syndrome coronavirus 2, UniProt P0DTD1); assay: biochemical; details: RdRp inhibition IC50, in vitro polymerase activity assay

| Structure (SMILES) | selectivity index (SI = CC50/EC50) (SARS-CoV-2-trVLPs) | anti-inflammation activity (inhibition of P17 secretion), dose dependence [1] | inhibition at 10 µM [1] | reduction of SARS-CoV-2-induced IL-1β P17 release, dose dependence [2] | IC50 [3] | IC50 [4] |
| --- | --- | --- | --- | --- | --- | --- |
| COc1cc(O)ccc1/C=C/C(=O)c1ccc(O)cc1 [Echinatin] | > 5.0 | dose-dependent manner | > 90% | dose-dependent effects |  |  |
| Cc1cc(O)c2c(c1)C(=O)c1cc(O)cc(O)c1C2=O [Emodin] | > 5.0 |  |  |  |  |  |
| CC(C)=CCc1cc(-c2coc3cc(O)cc(O)c3c2=O)cc(O)c1O [Glycyrrhisoflavone] | > 5.0 | dose-dependent manner | > 90% | dose-dependent effects | 1.29 µM | 28.9 µM |
| C=CCc1ccc(O)c(-c2cc(CC=C)ccc2O)c1 [Magnolol] | > 5.0 |  |  |  |  |  |
| O=c1c(O)c(-c2ccc(O)c(O)c2)oc2cc(O)cc(O)c12 [Quercetin] | > 5.0 |  |  |  | 17.4 µM |  |
